Target: T1, human serum albumin (HSA) in pooled normal serum (Homo sapiens, UniProt P02768)
T1 construct: from tissue; host or cells: pooled normal human serum
Experiment: Cobalt binding assay, HSA in pooled normal serum incubated with individual unesterified fatty acids
Settings: fatty acid:HSA molar ratios of about 8; most apparent with HSA in pooled normal serum
Protocol: The concentrations of twelve unesterified fatty acids were measured in vitro to determine if differences in individual fatty acid levels affect Co(II)—albumin interactions in the cobalt binding assay. The effect of individual fatty acid concentrations on HSA was evaluated in the presence of HSA from two different sources: (1) purified commercial HSA with defined buffer conditions, and (2) USA in pooled normal serum. The cobalt binding assays were performed after incubation of HSA with each unesterified fatty acid for 12 hours at room temperature. The concentrations of the individual FFAs were determined by measuring total FFAs levels before and after the addition of the specific FFAs to pooled normal serum. HSA concentrations were measured by standard colorimetric protein assays. Molar ratios were calculated from the concentration values determined for the individual specific FFAs with respect to the concentrations of HSA measured in each sample.

T1 sequence (P02768 25-609): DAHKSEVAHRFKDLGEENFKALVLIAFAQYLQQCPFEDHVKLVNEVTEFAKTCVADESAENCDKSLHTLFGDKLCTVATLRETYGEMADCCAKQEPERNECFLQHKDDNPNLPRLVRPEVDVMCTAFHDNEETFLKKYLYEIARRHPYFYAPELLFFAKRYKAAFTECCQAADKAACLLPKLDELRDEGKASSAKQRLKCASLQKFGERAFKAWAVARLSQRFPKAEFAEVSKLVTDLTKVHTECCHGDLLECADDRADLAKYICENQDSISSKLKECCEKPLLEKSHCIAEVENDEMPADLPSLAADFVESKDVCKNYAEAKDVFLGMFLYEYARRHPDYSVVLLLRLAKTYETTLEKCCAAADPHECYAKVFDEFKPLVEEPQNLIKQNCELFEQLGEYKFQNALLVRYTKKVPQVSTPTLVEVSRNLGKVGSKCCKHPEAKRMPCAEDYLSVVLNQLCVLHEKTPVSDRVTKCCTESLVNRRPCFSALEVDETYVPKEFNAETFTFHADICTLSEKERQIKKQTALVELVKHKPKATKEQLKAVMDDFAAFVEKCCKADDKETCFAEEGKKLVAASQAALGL

Row | effect on the percent reduction of the Co[II]-HSA binding assay | Structure (SMILES)
1 | significant effect | CCCCCCCC/C=C\CCCCCCCC(=O)O [Oleic acid]
2 | significant effect | CCCCC/C=C\C/C=C\C/C=C\C/C=C\CCCC(=O)O [Arachidonic acid]

From patent publication US20110045520A1, “FATTY ACID MARKERS FOR THE DIAGNOSIS, PROGNOSIS AND MANAGEMENT OF CARDIOVASCULAR DISEASE” (priority 2007, published 2011)
